Results as given in ChEMBL document CHEMBL5634134, “Design, synthesis, and biological evaluation of novel 4,4'-bipyridine derivatives acting as CDK9-Cyclin T1 protein-protein interaction inhibitors against triple-negative breast cancer” (Eur J Med Chem, 2023).
Calls of active or inactive are those of the source. The rule behind the calls is not given here.

What was measured:
[1] = system: A549; experiment: cells; settings: Homo sapiens, A549, 72 h
[2] = Cytotoxicity against human MRC5 cells assessed as inhibition of cell growth incubated for 72 hrs by MTT assay; type: toxicity, cell-based
[3] = Cytotoxicity against human MCF-10A cells assessed as inhibition of cell growth incubated for 72 hrs by MTT assay; type: toxicity, cell-based
[4] = Cytotoxicity against human L02 cells assessed as inhibition of cell growth incubated for 72 hrs by MTT assay; type: toxicity, cell-based
[5] = biological target: CDK9/cyclin T1 (Homo sapiens, UniProt P50750); experiment: Inhibition of human CDK9/Cyclin T1 in presence of ATP by radiometric kinase assay; type: protein-complex assay
CDK9/cyclin T1, sequence (O60563 whole entry): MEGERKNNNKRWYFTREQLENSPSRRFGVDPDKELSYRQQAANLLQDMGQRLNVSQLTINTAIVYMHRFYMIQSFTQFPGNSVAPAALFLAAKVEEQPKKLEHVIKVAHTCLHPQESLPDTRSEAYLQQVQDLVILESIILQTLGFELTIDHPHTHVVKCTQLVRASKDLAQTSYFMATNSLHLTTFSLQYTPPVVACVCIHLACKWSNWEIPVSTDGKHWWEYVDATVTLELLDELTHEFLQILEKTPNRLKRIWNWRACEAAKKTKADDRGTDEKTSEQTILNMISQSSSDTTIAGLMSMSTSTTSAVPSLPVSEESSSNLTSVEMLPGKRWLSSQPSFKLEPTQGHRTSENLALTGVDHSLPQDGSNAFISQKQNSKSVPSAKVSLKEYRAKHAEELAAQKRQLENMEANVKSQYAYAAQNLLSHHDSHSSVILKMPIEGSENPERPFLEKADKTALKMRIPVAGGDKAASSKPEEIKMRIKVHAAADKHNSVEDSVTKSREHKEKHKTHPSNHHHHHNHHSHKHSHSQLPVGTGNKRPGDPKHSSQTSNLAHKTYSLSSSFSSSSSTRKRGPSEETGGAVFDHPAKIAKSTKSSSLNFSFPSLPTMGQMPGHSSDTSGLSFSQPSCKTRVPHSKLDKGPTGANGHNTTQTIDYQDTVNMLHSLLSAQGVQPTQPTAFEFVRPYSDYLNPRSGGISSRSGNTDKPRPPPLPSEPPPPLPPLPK
CDK9/cyclin T1, sequence (P50750 whole entry): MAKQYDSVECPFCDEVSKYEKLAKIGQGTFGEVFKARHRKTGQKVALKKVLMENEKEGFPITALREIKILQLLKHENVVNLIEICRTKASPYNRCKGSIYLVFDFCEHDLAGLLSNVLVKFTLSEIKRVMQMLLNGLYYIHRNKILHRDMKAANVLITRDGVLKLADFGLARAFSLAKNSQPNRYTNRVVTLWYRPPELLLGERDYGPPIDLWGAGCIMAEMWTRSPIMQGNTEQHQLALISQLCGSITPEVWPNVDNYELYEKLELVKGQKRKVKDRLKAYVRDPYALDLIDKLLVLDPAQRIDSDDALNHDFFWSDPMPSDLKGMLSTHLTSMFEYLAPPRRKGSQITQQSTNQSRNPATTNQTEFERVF

[6] = biological target: CDK9/cyclin T1 (Homo sapiens) (UniProt O60563+P50750); experiment: Inhibition of CDK9/Cyclin T1 protein-protein interaction in human MDA-MB-231 cells at 3 uM incubated for 8 hrs by co-immunoprecipitation assay; type: cell-based
[7] = system: HepG2; experiment: cells; settings: Homo sapiens, HepG2, 72 h
[8] = system: MDA-MB-231; experiment: Induction of apoptosis in human MDA-MB-231 cells assessed as early apoptotic cells at 1000 nM incubated for 72 hrs by Annexin V-FITC/PI staining based flow cytometry analysis (reference value: 0.66 %); type: functional
[9] = system: MDA-MB-231; experiment: Induction of apoptosis in human MDA-MB-231 cells assessed as necrotic cells at 1000 nM incubated for 72 hrs by Annexin V-FITC/PI staining based flow cytometry analysis (reference value: 0.49 %); type: functional
[10] = Selectivity index, ratio of IC50 for the cytotoxicity against human LO2 cells to IC50 for antiproliferative activity against human MDA-MB-231 cells; type: toxicity, cell-based; settings: LO2 cells versus MDA-MB-231 cells, read-out: Ratio IC50
[11] = system: MDA-MB-231; experiment: Induction of apoptosis in human MDA-MB-231 cells assessed as late apoptotic cells at 1000 nM incubated for 72 hrs by Annexin V-FITC/PI staining based flow cytometry analysis (reference value: 4.04 %); type: functional
[12] = Cytotoxicity against HK-2 cells assessed as inhibition of cell growth incubated for 72 hrs by MTT assay; type: toxicity, cell-based; settings: human
[13] = system: BT-549; experiment: cells; settings: Homo sapiens, BT-549, 72 h
[14] = system: MDA-MB-231; experiment: Induction of apoptosis in human MDA-MB-231 cells assessed as viable cells at 1000 nM incubated for 72 hrs by Annexin V-FITC/PI staining based flow cytometry analysis (reference value: 94.81 %); type: functional; settings: read-out: Activity
[15] = system: MDA-MB-231; experiment: cells; settings: Homo sapiens, MDA-MB-231, 72 h
[16] = system: 4T1; experiment: cells; settings: Mus musculus, 4T1, 72 h
[17] = system: Hs-578T; experiment: cells; settings: Homo sapiens, 72 h
[18] = system: HeLa; experiment: cells; settings: Homo sapiens, 72 h
[19] = system: BT-549; experiment: Antiproliferative activity against human BT-549 cells assessed as inhibition of cell growth by MTT assay; type: functional, cell-based
[20] = Cytotoxicity against HEK293T cells assessed as inhibition of cell growth by MTT assay; type: toxicity, cell-based, HEK-293T; settings: human
[21] = system: MDA-MB-231; experiment: Antiproliferative activity against human MDA-MB-231 cells assessed as inhibition of cell growth by MTT assay; type: functional, cell-based
[22] = Cytotoxicity against human L02 cells assessed as inhibition of cell growth by MTT assay; type: toxicity, cell-based
[23] = system: T47D; experiment: Antiproliferative activity against human T47D cells assessed as inhibition of cell growth by MTT assay; type: functional, cell-based
[24] = Cytotoxicity against human MCF-10A cells assessed as inhibition of cell growth by MTT assay; type: toxicity, cell-based
[25] = system: MDA-MB-468; experiment: Antiproliferative activity against human MDA-MB-468 cells assessed as inhibition of cell growth by MTT assay; type: functional, cell-based
[26] = system: MDA-MB-231; experiment: Inhibition of RNA Polymerase II CTD phosphorylation at ser2 residue in human MDA-MB-231 cells at 1 uM incubated for 24 hrs by Western blotting analysis; type: cell-based
[27] = system: MDA-MB-231; experiment: cells; settings: Homo sapiens
[28] = system: MDA-MB-436; experiment: cells; settings: Homo sapiens
[29] = system: BT-549; experiment: cells; settings: Homo sapiens
[30] = system: MDA-MB-231; experiment: Antiproliferative activity against human MDA-MB-231 cells assessed as inhibition of cell growth incubated for 48 hrs by MTT assay; type: functional, cell-based; settings: MDA-MB-231, 48 h
[31] = system: MDA-MB-231; experiment: Inhibition of colony formation in human MDA-MB-231 cells at 2 uM incubated for 10 days by crystal violet staining based analysis; type: functional, cell-based; settings: time 10.0 day
[32] = system: MDA-MB-231; experiment: Antiproliferative activity against human MDA-MB-231 cells assessed as decrease in sphere size by measuring sphere diameter at 10 uM incubated for 10 days by confocal laser scanning microscopy (reference value: 508.27 micrometer); type: functional; settings: time 10 day

SMILES	IC50 [1] [µM]	IC50 at 72 h [4] [µM]	IC50 [15] [µM]	IC50 [18] [µM]	other results
N[C@H]1CC[C@H](Nc2cc(-c3cccc(NCc4cccc(F)c4)n3)c(Cl)cn2)CC1	1.62	0.278	0.08	0.15	IC50 at 72 h [2]: 0.197 µM; IC50 at 72 h [3]: 0.108 µM; IC50 [5]: < 0.0004 µM; inhibition [6]: inactive; IC50 [7]: 0.473 µM; Activity [8]: 37.6%; Activity [9]: 0.2%; selectivity ratio [10]: 3; Activity [11]: 42.9%; IC50 at 72 h [12]: 0.187 µM; IC50 [13]: 0.053 µM; viability at 1 µM [14]: 19.3%; IC50 [16]: 0.116 µM; IC50 [17]: 0.074 µM
CCOc1cc(/C=N/O)ccc1OCC#CC1c2c(cc3c(c2OC)OCO3)CCN1C (stereo unspecified)					IC50 [19]: 12.6 µM; IC50 [20]: > 100 µM; IC50 [21]: 6.2 µM; IC50 [22]: > 100 µM; IC50 [23]: 52.5 µM; IC50 [24]: 35.5 µM; IC50 [25]: 7.4 µM
O=C(Nc1cc(-c2ccnc(N3CCCC(CO)C3)c2)c(Cl)cn1)c1ccc(F)cc1 (stereo unspecified)	1.85	> 10	0.585	0.276	
CC1CCCN(c2cc(-c3ccnc(NC(=O)c4ccc(F)cc4)c3)ccn2)C1 (stereo unspecified)	4.32	1.23	0.273	0.474	
COc1ccc(CCC(=O)Nc2cc(-c3ccnc(N4CCC(O)CC4)c3)ccn2)cc1	> 10	> 10	> 10	> 10	inhibition [26]: Active
O=C(Nc1cc(-c2ccnc(N3CCC(O)CC3)c2)ccn1)c1ccc(C(F)(F)F)cc1	1.65	1.96	0.112	0.257	inhibition [26]: Active
COc1ccc(C(=O)Nc2cc(-c3ccnc(N4CCC(NC(=O)OC(C)(C)C)CC4)c3)ccn2)cc1	3.29	0.538	0.199	> 10	
COc1ccc(C(=O)Nc2cc(-c3ccnc(N(C)CCO)c3)ccn2)cc1	> 10	1.12	0.367	0.527	
COc1ccc(C(=O)Nc2cc(-c3ccnc(N4CCC(C)CC4)c3)ccn2)cc1	2.71	4.17	0.184	1.59	
COc1cccc(C(=O)Nc2cc(-c3ccnc(N4CCC(O)CC4)c3)ccn2)c1	2.88	2.98	3.94	> 10	inhibition [26]: Active
COc1cc(F)ccc1-c1ncnc(Nc2cccc(C[S@](C)(=N)=O)c2)n1 [ATUVECICLIB]					IC50 [27]: 1.32 µM; IC50 [28]: 0.63 µM; IC50 [29]: 2.01 µM
Cc1sc2c(c1C)C(c1ccc(Cl)cc1)=N[C@@H](CC(=O)OC(C)(C)C)c1nnc(C)n1-2					IC50 [30]: 3.15 µM
COc1ccc(CNc2cc(-c3ccnc(N4CCC(O)CC4)c3)ccn2)cc1	> 10	> 10	3.21	> 10	inhibition [26]: Active
O=c1[nH]cc(F)c(=O)[nH]1 [FLUOROURACIL]					IC50 [30]: 13.9 µM
O=C(c1cc(Cc2n[nH]c(=O)c3ccccc23)ccc1F)N1CCN(C(=O)C2CC2)CC1 [OLAPARIB]					inhibition [31]: inactive; Activity [32]: 472.83 um; IC50 [30]: > 50 µM
CC1CCN(c2cc(-c3ccnc(NC(=O)c4ccc(C(F)(F)F)cc4)c3)ccn2)CC1	> 10	> 10	3.18	7.79	
CC1CCN(c2cc(-c3ccnc(NC(=O)c4ccc(F)cc4)c3)ccn2)CC1	> 10	> 10	> 10	> 10	
